Test results: US8906430B2, “Use of hypericum perforatum extracts in the treatment of neuropathic pain” (Aboca S.p.A. Societa' Agricola, priority 2008, dated 2014)

What was measured:
[1] = tested on: monosodium iodoacetate-induced osteoarthritis pain; assay: Pain caused by monosodium iodoacetate-induced osteoarthritis of the knee, rat paw pressure test; assay type: in vivo; conditions: MIA, 0.11 mg/kg p.o.
Text: The reduction in the pain threshold was induced by a single administration of monoiodoacetate (MIA) into the […] of the rat (Ref. 27). [table]

[2] = tested on: neuropathic pain; assay: Experimental models of neuropathic pain (summary statements); assay type: in vivo, rodents; conditions: for Ability to reduce neuropathic pain: isolated phloroglucinol derivatives
Experimental: The studies were conducted on rodents, which have always constituted a good animal model to reproduce the characteristics of human pain symptoms and predict possible remedies.

[3] = tested on: oxaliplatin-induced hyperalgesia; assay: Oxaliplatin-induced hyperalgesia, rat paw pressure test; assay type: in vivo; conditions: oxaliplatin i.p., hypericin 0.11 mg/kg + CMC p.o., single administration
Experimental: A reduction in the pain threshold was induced by administering oxaliplatin 2.4 mg/kg for 5 consecutive days for a total of 3 weeks. By the end of the treatment period, the pain perception threshold of the rats was statistically lower than that of the controls (Ref. 23). Using the same method as in Example 1, the following results were obtained by administering hypericin at the doses indicated in Table 5.

[4] = tested on: mononeuropathy induced by ligature of the sciatic nerve; assay: Right-side mononeuropathy induced by ligature of the sciatic nerve, rat paw pressure test; assay type: in vivo; set-up: unit not given beside the values; conditions: 0.11 mg/kg p.o.
Experimental: Neuropathic pain is characterised by the development of an altered perception of pain, which is manifested as continuous spontaneous pain and hyperalgesia. In this model, the rats were anaesthetised with chloral hydrate 400 mg/kg i.p. or sodium pentobarbital 40 mg/kg i.p. The sciatic nerve was then exposed at thigh level by retracting the femoral biceps. Proximally to the trifurcation of the sciatic nerve, approx. 7 mm of nerve was released from the membranes and 4 loose ligatures were tied round the nerve, approx. 1 mm apart. In another group of animals an identical incision was made, but without the nerve ligature (sham operation). Neuropathy developed in 14 days. The tests with the potentially analgesic substances were performed on the 14th and 21st days after the operation using the paw pressure test (ref. 24).
Using the same method as in Example 2, the following results were obtained by administering hypericin at the doses indicated in Table 6.

Cc1cc(O)c2c(=O)c3c(O)cc(O)c4c5c(O)cc(O)c6c(=O)c7c(O)cc(C)c8c1c2c(c34)c(c78)c65 [HYPERICIN, hypericin]
Rat paw pressure test ([1]; 15 min after treatment): 45.9 ± 2.7 | Rat paw pressure test ([1]; 30 min after treatment): 49.7 ± 3.8 | Rat paw pressure test ([1]; 45 min after treatment): 42.8 ± 3.9 | Rat paw pressure test ([1]; 60 min after treatment): 31.7 ± 3.5 | Rat paw pressure test ([1]; Pre-test): 23.4 ± 3.3 | Activity on neuropathic pain ([2]; at a dose corresponding to its concentration in freeze-dried extracts): active | Pressure on rats' paws ([3]; 3rd week + 15 min): 44.1 ± 2.8 g | Pressure on rats' paws ([3]; 3rd week + 30 min): 55.0 ± 2.2 g | Pressure on rats' paws ([3]; 3rd week + 45 min): 53.3 ± 2.6 g | Pressure on rats' paws ([3]; 3rd week + 60 min): 31.3 ± 3.0 g | Pressure on rats' paws ([3]; 3rd week Pre-test): 32.4 ± 2.0 g | Pressure on rats' paws ([3]; Pre-test before all treatments): 63.2 ± 3.5 g | Rat paw pressure test (Paw) ([4]; paw L, 4 min after treatment): 24.8 ± 3.9 | Rat paw pressure test (Paw) ([4]; paw L, 15 min after treatment): 23.8 ± 3.3 | Rat paw pressure test (Paw) ([4]; paw L, 30 min after treatment): 22.7 ± 2.1 | Rat paw pressure test (Paw) ([4]; paw L, 60 min after treatment): 21.5 ± 3.0 | Rat paw pressure test (Paw) ([4]; paw L, before treatment): 21.6 ± 2.7 | Rat paw pressure test (Paw) ([4]; paw R, 4 min after treatment): 41.6 ± 2.7 | Rat paw pressure test (Paw) ([4]; paw R, 15 min after treatment): 28.1 ± 1.2 | Rat paw pressure test (Paw) ([4]; paw R, 30 min after treatment): 43.7 ± 2.0 | Rat paw pressure test (Paw) ([4]; paw R, 60 min after treatment): 25.9 ± 2.2 | Rat paw pressure test (Paw) ([4]; paw R, before treatment): 24.3 ± 4.6

CCC(C)C(=O)[C@@]12C(=O)C(CC=C(C)C)=C(O)[C@@](CC=C(C)C)(C[C@H](CC=C(C)C)[C@@]1(C)CCC=C(C)C)C2=O (stereo partly drawn) [adihyperforin]
Ability to reduce neuropathic pain [2]: unable to reduce neuropathic pain

CC(C)=CCC[C@]1(C)[C@@H](CC=C(C)C)C[C@@]2(CC=C(C)C)C(=O)[C@]1(C(=O)C(C)C)C(=O)C(CC=C(C)C)=C2O [hyperforin]
Ability to reduce neuropathic pain [2]: unable to reduce neuropathic pain
